Measurements as given in patent US9730940B2, “Purine inhibitors of human phosphatidylinositol 3-kinase delta” (priority 2012, dated 2017).

biological target: PI3K-alpha (Homo sapiens (Human), UniProt P42336); assay: HTRF PI3K biochemical assay, alpha isoform; conditions: ratio PI3K-alpha IC50 value/PI3K-delta IC50 value
Text: HTRF PI3K Biochemical Assay to Measure Intrinsic Potency of Compound Inhibitors
The PI3-Kinase biochemical assays were developed to measure the intrinsic potency and compound dependent inhibition of the alpha, beta, delta, and gamma PI3K isoform enzymes. This assay was developed and further optimized from a kit produced by Upstate (Millipore catalog #33-047) and has been configured for HTS and SAR screening. Briefly, this procedure exploits the exquisite specificity and high affinity binding of enzyme reaction substrate phosphatidyl(3,4,5)triphosphate (PIP3) to the GRP1 pleckstrin homology (PH) domain to generate the signal. In the absence of PIP3, an HTRF (Homogeneous Time-Resolved Fluorescence energy transfer) complex is formed consisting of europium (Eu)-labeled anti-GST, GST tagged GRP1-PH domain, biotin-PIP3 and streptavidin conjugated APC. The native PIP3 produced by PI3-Kinase activity disrupts in a competitive manner the biotin-PIP3 from the PH domain, resulting in the loss of energy transfer (HTRF complex) and a decrease in the signal. The format of this assay is the same for all 4 isoforms of PI3K; the differences lie in the concentration of enzyme used to achieve robust assay window. The alpha, beta, and delta assays are run at 0.5, 1, and 0.3 nM enzymes and the gamma assay is run at 5 nM enzyme. The ATP concentration is 100 uM in the alpha, beta, and delta assays and 50 uM ATP in the gamma assay. All reactions are run at 5 uM PIP2.
Compounds are serially diluted (3-fold in 100% DMSO) across a 384-well polypropylene source plated from column 3 to column 12 and column 13 to column 22, to yield 10 concentration dose response for each test compound. Columns 1, 2, 23 and 24 contain either only DMSO or pharmacological known control inhibitor.
The PI3-Kinase biochemical assay was optimized using the HTRF kit provided by Upstate (Millipore). The assay kit contains six reagents: 1) 4× Reaction Buffer; 2) native PIP2 (substrate); 3) Stop (EDTA); 4) Detection Mix A (Streptavidin-APC); 5) Detection Mix B (Eu-labeled Anti-GST plus GST-tagged PH-domain); 6) Detection Mix C.
PI3Kinase Reaction Buffer is prepared by dilution the stock 1:4 with de-ionized water. […] Enzyme addition and compound pre-incubation are initiated by the addition of 1.25 ul of PI3K (at twice its final concentration) in the 1× reaction buffer to all wells using a BioRaptor. Plates are incubated at room temperature for 15 minutes. Reactions are initiated by addition of 1.25 ul of 2× substrate solution (PIP2 and ATP in 1× reaction buffer) using BioRaptor. Plates are incubated in humidified chamber at room temperature for one hour. Reactions are quenched by addition of 0.625 uL of stop solution to all wells using the BioRaptor. The quenched reactions are then processed to detect product formation by adding 0.625 uL of Detection Solution to all wells using the BioRaptor (Detection mix C, Detection Mix A, and Detection Mix B combined together in an 18:1:1 ratio prepared 2 hours prior to use).
The loss of the HTRF signal is due to the displacement of biotinylated-PIP3 from the PH domain by the PI3K-dependent conversion of PIP2 to PIP3. This loss of signal is nonlinear with respect to both increasing product and time. This non-linear detection will impact accuracy of IC50 calculations; therefore, there is a need for a correction factor to obtain more accurate IC50 values. This correction is derived from a PIP3 standard curve run in a separate assay plate. All data were calculated using the ratio of acceptor (APC) to donor (Europium) fluorescence in each well of the assay plate. […] An IC50 was then calculated fitting the % inhibition data to the equation: % inhibition=min+(Max−min)/1+([inhibitor]/IC50)^n) where min is the % inhibition […], max is the signal in DMSO control, and n is the Hill slope.

Sequence of PI3K-alpha (P42336 whole entry, looked up, canonical isoform): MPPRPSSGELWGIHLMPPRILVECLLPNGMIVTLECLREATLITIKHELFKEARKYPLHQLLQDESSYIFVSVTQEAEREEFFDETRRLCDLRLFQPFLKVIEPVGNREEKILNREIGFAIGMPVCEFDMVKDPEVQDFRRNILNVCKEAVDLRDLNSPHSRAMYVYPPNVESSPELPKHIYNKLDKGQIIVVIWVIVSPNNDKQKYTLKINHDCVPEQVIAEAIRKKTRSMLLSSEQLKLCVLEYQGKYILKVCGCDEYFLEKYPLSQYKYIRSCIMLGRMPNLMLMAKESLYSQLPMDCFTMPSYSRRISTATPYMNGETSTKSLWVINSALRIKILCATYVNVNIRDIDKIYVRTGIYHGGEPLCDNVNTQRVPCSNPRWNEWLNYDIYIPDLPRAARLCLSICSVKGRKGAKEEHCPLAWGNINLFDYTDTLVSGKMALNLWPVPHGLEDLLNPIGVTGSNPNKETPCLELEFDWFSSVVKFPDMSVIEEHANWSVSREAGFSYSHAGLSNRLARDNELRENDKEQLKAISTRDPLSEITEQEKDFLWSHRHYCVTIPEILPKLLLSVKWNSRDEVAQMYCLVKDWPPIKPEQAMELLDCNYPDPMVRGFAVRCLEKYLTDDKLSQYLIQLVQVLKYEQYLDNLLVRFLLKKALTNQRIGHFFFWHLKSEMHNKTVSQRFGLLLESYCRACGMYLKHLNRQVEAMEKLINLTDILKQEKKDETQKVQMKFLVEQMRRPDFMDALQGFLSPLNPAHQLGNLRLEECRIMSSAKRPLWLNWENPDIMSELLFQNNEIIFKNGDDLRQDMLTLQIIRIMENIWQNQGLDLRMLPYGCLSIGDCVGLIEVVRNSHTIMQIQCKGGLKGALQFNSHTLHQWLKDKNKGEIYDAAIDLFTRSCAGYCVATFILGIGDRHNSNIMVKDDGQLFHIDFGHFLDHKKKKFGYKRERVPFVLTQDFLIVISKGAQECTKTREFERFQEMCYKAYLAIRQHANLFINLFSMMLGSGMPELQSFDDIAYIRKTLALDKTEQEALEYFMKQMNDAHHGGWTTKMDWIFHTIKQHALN
Sequence of PI3K-alpha (P27986 whole entry partner, looked up, canonical isoform): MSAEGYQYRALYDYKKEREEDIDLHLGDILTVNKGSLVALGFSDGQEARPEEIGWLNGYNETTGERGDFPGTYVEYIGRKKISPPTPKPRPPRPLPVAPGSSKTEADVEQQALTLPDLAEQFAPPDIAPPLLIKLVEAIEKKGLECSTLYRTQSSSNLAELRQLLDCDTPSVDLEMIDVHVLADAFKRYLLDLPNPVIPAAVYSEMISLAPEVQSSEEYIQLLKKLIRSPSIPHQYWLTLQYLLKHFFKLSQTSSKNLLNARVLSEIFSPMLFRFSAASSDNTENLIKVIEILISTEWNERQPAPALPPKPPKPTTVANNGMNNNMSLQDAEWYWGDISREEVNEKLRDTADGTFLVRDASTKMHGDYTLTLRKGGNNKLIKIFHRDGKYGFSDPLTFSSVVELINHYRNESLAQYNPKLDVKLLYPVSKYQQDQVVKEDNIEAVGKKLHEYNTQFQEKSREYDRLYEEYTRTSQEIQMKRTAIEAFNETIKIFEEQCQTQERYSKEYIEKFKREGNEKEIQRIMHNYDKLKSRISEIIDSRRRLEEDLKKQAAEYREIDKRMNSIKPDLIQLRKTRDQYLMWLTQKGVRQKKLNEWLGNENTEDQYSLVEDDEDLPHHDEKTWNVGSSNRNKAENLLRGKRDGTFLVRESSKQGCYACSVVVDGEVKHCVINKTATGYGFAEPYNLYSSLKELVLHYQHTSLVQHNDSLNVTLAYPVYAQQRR

Compound | Relative Selectivity versus PI3Kalpha
CCn1c(-c2cnc(C)nc2)nc2c(OC3CN(C(=O)C4CC4)CC3C(F)F)ncnc21 (single isomer, unassigned) [Compound 3-66, cyclopropyl([(3R,4S) or (3S,4R)]-3-(difluoromethyl)-4-((9-ethyl-8-(2-methylpyrimidin-5-yl)-9H-purin-6-yl)oxy)pyrrolidin-1-yl)methanone] | >10
CCn1c(-c2cnc(C)nc2)nc2c(OC3CN(C(=O)C4CC4)CC3C(F)F)ncnc21 (single isomer, unassigned) [Compound 3-67, cyclopropyl([(3R,4S) or (3S,4R)]-3-(difluoromethyl)-4-((9-ethyl-8-(2-methylpyrimidin-5-yl)-9H-purin-6-yl)oxy)pyrrolidin-1-yl)methanone] | >10
CCn1c(-c2cnc(C)nc2)nc2c(OC3CN(C(=O)C4CC4)CC3CF)ncnc21 (single isomer, unassigned) [Compound 3-68, cyclopropyl([(3S,4R) or (3R,4S)]-3-((9-ethyl-8-(2-methylpyrimidin-5-yl)-9H-purin-6-yl)oxy)-4-(fluoromethyl)pyrrolidin-1-yl)methanone] | >10
CCn1c(-c2cnc(C)nc2)nc2c(OC3CN(C(=O)C4CC4)CC3CF)ncnc21 (single isomer, unassigned) [Compound 3-69, cyclopropyl([(3S,4R) or (3R,4S)]-3-((9-ethyl-8-(2-methylpyrimidin-5-yl)-9H-purin-6-yl)oxy)-4-(fluoromethyl)pyrrolidin-1-yl)methanone] | >10
CCn1c(-c2cnc(C)nc2)nc2c(OC3CCC(NC(=O)C4CCOCC4)C3)ncnc21 (single isomer, unassigned) [Compound 9-9, N-[(1S,3S) or (1R,3R)]-(3-{[9-ethyl-8-(2-methylpyrimidin-5-yl)-9H-purin-6-yl]oxy}cyclopentyl)tetrahydro-2H-pyran-4-carboxamide] | >10
CCn1ncc(-c2nc3c(O[C@H]4CCN(C(=O)OC(C)(C)C)C4)ncnc3n2C)c1C [Compound 1-1, tert-butyl (3S)-3-{[8-(1-ethyl-5-methyl-1H-pyrazol-4-yl)-9-methyl-9H-purin-6-yl]oxy}pyrrolidine-1-carboxylate] | >10
CCn1ncc(-c2nc3c(O[C@H]4CCNC4)ncnc3n2C)c1C [Compound 1-2, 8-(1-ethyl-5-methyl-1H-pyrazol-4-yl)-9-methyl-6-[(3S)-pyrrolidin-3-yloxy]-9H-purine] | >5
CCn1c(-c2cnc(C)nc2)nc2c(O[C@H]3CCN(C(=O)OC(C)(C)C)C3)ncnc21 [Compound 1-3, (S)-tert-butyl 3-(9-ethyl-8-(2-methylpyrimidin-5-yl)-9H-purin-6-yloxy)pyrrolidine-1-carboxylate] | >10
CCn1ncc(-c2nc3c(O[C@H]4CCN(C(=O)OCC(C)C)C4)ncnc3n2C)c1C [Compound 1-4, 2-methylpropyl (3S)-3-{[8-(1-ethyl-5-methyl-1H-pyrazol-4-yl)-9-methyl-9H-purin-6-yl]oxy}pyrrolidine-1-carboxylate] | >10
CCn1ncc(-c2nc3c(O[C@H]4CCN(C(=O)OCc5ccccc5)C4)ncnc3n2C)c1C [Compound 1-6, benzyl (3S)-3-{[8-(1-ethyl-5-methyl-1H-pyrazol-4-yl)-9-methyl-9H-purin-6-yl]oxy}pyrrolidine-1-carboxylate] | 4
CCn1ncc(-c2nc3c(O[C@H]4CCN(C(=O)OCC(C)(C)C)C4)ncnc3n2C)c1C [Compound 1-9, 2,2-dimethylpropyl (3S)-3-{[8-(1-ethyl-5-methyl-1H-pyrazol-4-yl)-9-methyl-9H-purin-6-yl]oxy}pyrrolidine-1-carboxylate] | >10
COc1ncc(-c2nc3c(O[C@H]4CCN(C(=O)OC(C)(C)C)C4)ncnc3n2C)cc1C [Compound 1-13, tert-butyl (3S)-3-{[8-(6-methoxy-5-methylpyridin-3-yl)-9-methyl-9H-purin-6-yl]oxy}pyrrolidine-1-carboxylate] | >10
Cc1ncc(-c2nc3c(OC4CCN(C(=O)OC(C)(C)C)C4)ncnc3n2C)cn1 [Compound 1-14, terl-butyl (3S)-3-{[9-methyl-8-(2-methylpyrimidin-5-yl)-9H-purin-6-yl]oxy}pyrrolidine-1-carboxylate] | >10
Cn1c(-c2ccc(-n3cccn3)cc2)nc2c(O[C@H]3CCN(C(=O)OC(C)(C)C)C3)ncnc21 [Compound 1-15, tert-butyl (3S)-3-({9-methyl-8-[4-(1H-pyrazol-1-yl)phenyl]-9H-purin-6-yl}oxy)pyrrolidine-1-carboxylate] | >10
Cc1nn(C)cc1-c1nc2c(O[C@H]3CCN(C(=O)OC(C)(C)C)C3)ncnc2n1C [Compound 1-16, tert-butyl (3S)-3-{[8-(1,3-dimethyl-1H-pyrazol-4-yl)-9-methyl-9H-purin-6-yl]oxy}pyrrolidine-1-carboxylate] | >9
Cc1ncc(-c2nc3c(O[C@H]4CCN(C(=O)OC(C)(C)C)C4)ncnc3n2C)n1C [Compound 1-17, tert-butyl (3S)-3-{[8-(1,2-dimethyl-1H-imidazol-5-yl)-9-methyl-9H-purin-6-yl]oxy}pyrrolidine-1-carboxylate] | >10
Cn1c(-c2ccc(O)cc2)nc2c(O[C@H]3CCN(C(=O)OC(C)(C)C)C3)ncnc21 [Compound 1-18, tert-butyl (3S)-3-{[8-(4-hydroxyphenyl)-9-methyl-9H-purin-6-yl]oxy}pyrrolidine-1-carboxylate] | >10
Cn1c(-c2cn[nH]c2)nc2c(O[C@H]3CCN(C(=O)OC(C)(C)C)C3)ncnc21 [Compound 1-19, tert-butyl (3S)-3-{[9-methyl-8-(1H-pyrazol-4-yl)-9H-purin-6-yl]oxy}pyrrolidine-1-carboxylate] | >10
CN(C)c1ccc(-c2nc3c(O[C@H]4CCN(C(=O)OC(C)(C)C)C4)ncnc3n2C)cn1 [Compound 1-20, tert-butyl (3S)-3-{[8-(6-(dimethylamino)pyridin-3-yl]-9-methyl-9H-purin-6-yl}oxy)pyrrolidine-1-carboxylate] | >10
Cc1cc2cccc(-c3nc4c(O[C@H]5CCN(C(=O)OC(C)(C)C)C5)ncnc4n3C)c2[nH]1 [Compound 1-21, tert-butyl (3S)-3-{[9-methyl-8-(2-methyl-1H-indol-7-yl)-9H-purin-6-yl]oxy}pyrrolidine-1-carboxylate] | >10
Cn1c(-c2cnn3cccnc23)nc2c(O[C@H]3CCN(C(=O)OC(C)(C)C)C3)ncnc21 [Compound 1-22, tert-butyl (3S)-3-[(9-methyl-8-pyrazolo[1,5-a]pyrimidin-3-yl-9H-purin-6-yl)oxy]pyrrolidine-1-carboxylate] | >10
CC(=O)Nc1ccc(-c2nc3c(O[C@H]4CCN(C(=O)OC(C)(C)C)C4)ncnc3n2C)cc1 [Compound 1-23, tert-butyl (3S)-3-({8-[4-(acetylamino)phenyl]-9-methyl-9H-purin-6-yl}oxy)pyrrolidine-1-carboxylate] | >10
Cn1c(-c2ccc(N3CCOCC3)nc2)nc2c(O[C@H]3CCN(C(=O)OC(C)(C)C)C3)ncnc21 [Compound 1-24, tert-butyl (3S)-3-{[9-methyl-8-(6-morpholin-4-ylpyridin-3-yl)-9H-purin-6-yl]oxy}pyrrolidine-1-carboxylate] | >2
